Entries after “also recorded” stand apart in the source; their conditions may differ.
Experiments:
[1] = Plasma tandospirone concentration after observation of behavior in PD-LID rats; format: in vivo, rat; conditions: continuous subcutaneous infusion 60 mg/mL (mean 0.78 mg/kg/hour as citrate)
Procedure: 50 μL of rat plasma sample was fractionated into a polypropylene microtube. 50 μL of methanol (50 μL of standard solution for calibration curve sample) and 200 μL of internal standard solution (Bezafibrate methanol solution: 200 nmol/L, 200 μL of methanol for blank sample) are added and stirred for about 10 seconds with a mixer. This is centrifuged (4° C., 4500 rpm, 10 min), and then the supernatant is subjected to vacuum filtration using a filter (FastRemover MF 0.2 μm). 70 μL of aqueous 10 mmol/L ammonium acetate solution is added to 70 μL of the resulting filtrate and stirred for about 10 seconds with a mixer to prepare a measurement sample.
When evaluating a tape agent, the hair on the abdominal region of rats was shaved before the evaluation date. The tape agent of formulation 2 was applied to the abdominal regions of rats on the evaluation date at 60 cm^2/kg (37 mg/kg). After 4 hours from application, a levodopa containing solution was intraperitoneally administered to observe and evaluate the behavior. Individuals with 50% or more of the tape agent coming off during the test were excluded from analysis. […]
After 4 hours, a levodopa containing solution was administered to observe and evaluate the behavior (day 0 of implanting the pump). […] The behavior was also observed and evaluated on day 13 of implanting the pump.

PD-LID rat model [2] = assay: ON score and ON time without dyskinesia in PD-LID rat model; format: in vivo; conditions: for total ON score (Locomotive behavior) in 3 hours: levodopa 5 min later
Procedure: To make a PD-LID rat model, a mixture of levodopa methyl ester hydrochloride (6 mg/kg; Sigma-Aldrich) dissolved in saline and benserazide hydrochloride (15 mg/kg; Sigma-Aldrich) (hereinafter, also referred to as “levodopa containing solution”) was intraperitoneally administered once daily to 6-OHDA-lesioned rats. The levodopa containing solution was repeatedly administered for 3 weeks or longer to observe and evaluate the behavior. The behavior was observed and evaluated in a transparent acrylic cage for 1 minute every 20 minutes after 20 minutes from the intraperitoneal administration of the levodopa containing solution, up until after 3 hours from administration. […] Individuals with a total AIMs score of less than 10 were excluded from the test as not manifesting a dyskinesia-like symptom. The behavior was observed and evaluated before the drug evaluation date. […] For an indicator of dyskinesia behavior, the sum of the Limb AIMs, Axial AIMs, and Orolingual AIMs at each evaluation point was used as the AIMs score. For the rotational behavior (ON score), Locomotive behavior at each evaluation point was used as an indicator. […] For ON time without dyskinesia, the period during which the AIMs score is 0 and Locomotive behavior is 1 or greater at each evaluation point was added. Duration of action of levodopa without a dyskinesia symptom (ON time without dyskinesia) refers to the aggregate time with no dyskinesia during the antiparkinsonian action effective time, i.e., “ON-time”, and defined as the time during which the dyskinesia symptom (AIMs) score is 0 and the rotational behavior (Locomotive behavior) score is 1 or greater at each evaluation point after levodopa administration. […] After 5 minutes, a levodopa containing solution was intraperitoneally administered, and the behavior was observed and evaluated. The results in the drawings are indicated in terms of mean value±standard error. […] For evaluation of a tape agent, the abdominal regions of the rats were shaved prior to the evaluation date. […] After 4 hours from application, a levodopa containing solution was intraperitoneally administered to observe and evaluation the behavior. The results in the drawings are indicated in terms of mean value±standard error. Individuals with 50% or more of the tape agent coming off during the test were excluded from analysis.

PD-LID rat model [3] = assay: Dyskinesia-like symptom (AIMs) score in PD-LID rat model; format: in vivo; conditions: continuous subcutaneous infusion 60 mg/mL (mean 0.78 mg/kg/hour); day 0 of implanting the pump; vs solvent group
Procedure: To make a PD-LID rat model, a mixture of levodopa methyl ester hydrochloride (6 mg/kg; Sigma-Aldrich) dissolved in saline and benserazide hydrochloride (15 mg/kg; Sigma-Aldrich) (hereinafter, also referred to as “levodopa containing solution”) was intraperitoneally administered once daily to 6-OHDA-lesioned rats. The levodopa containing solution was repeatedly administered for 3 weeks or longer to observe and evaluate the behavior. The behavior was observed and evaluated in a transparent acrylic cage for 1 minute every 20 minutes after 20 minutes from the intraperitoneal administration of the levodopa containing solution, up until after 3 hours from administration. […] The sum of the scores for Limb AIMs, Axial AIMs, and Orolingual AIMs in 3 hours was used as the total dyskinesia-like symptom (AIMs) score. Individuals with a total AIMs score of less than 10 were excluded from the test as not manifesting a dyskinesia-like symptom. The behavior was observed and evaluated before the drug evaluation date. The rats were assigned to each dosing group by using the 3 hour total dyskinesia-like symptom (AIMs) score, Locomotive behavior score, and rat body weight as indicators, which were used for evaluation of drugs. […]
After 4 hours from application, a levodopa containing solution was intraperitoneally administered to observe and evaluate the behavior. Individuals with 50% or more of the tape agent coming off during the test were excluded from analysis. […]
As in Example 2, a levodopa containing solution was repeated administered to 6-0HDA-lesioned rats for 3 weeks or longer to observe and evaluate the behavior. The behavior was observed and evaluated before the drug evaluation date. The rats were assigned to each dosing group by using the 3 hour dyskinesia-like symptom (AIMs) score, Locomotive behavior score, and rat body weight as indicators, which were used for evaluation of drugs. However, individuals with a total AIMs score of less than 10 were excluded from the test as lacking manifestation of a dyskinesia-like symptom. Individuals with a body weight deviating 10% or more from the mean body weight were also excluded from the test to minimize variation in the dosage for each individual. […]
After 4 hours, a levodopa containing solution was administered to observe and evaluate the behavior. […]
The prepared solution was used after injection into an ALZET® Osmotic Pump MODEL 2ML2 (4.53 μL/hour; DURECT) for releasing a drug solution at a stable rate for 2 weeks. […]
The behavior was observed and evaluated using the same method as Example 2. […] After 5 minutes, a levodopa containing solution was intraperitoneally administered, and the behavior was observed and evaluated. The results in the drawings are indicated in terms of mean value […] standard error. The test results were statistically analyzed by comparison with the solvent administration group by Steel test using the total dyskinesia-like symptom (AIMs) score in 3 hours and total dyskinesia-like symptom score in 100 to 180 minutes as parameters. * indicates p<0.05, meaning that there is a significant difference.
The behavior was observed and evaluated using the same method in Example 2. […] The test results were statistically analyzed by comparison with the solvent administration group by Steel test by using the total dyskinesia-like symptom (AIMs) score in 3 hours and total dyskinesia-like symptom score in 100 to 180 minutes as parameters.

## tandospirone citrate
[1]; day 0 of implanting the pump
  mean value of the plasma tandospirone concentrations (value converted in terms of free form): 281 ng/mL
[1]; day 13 of implanting the pump
  mean value of the plasma tandospirone concentrations (value converted in terms of free form): 143 ng/mL
PD-LID rat model [2]; oral 20 mg/kg as free form (30 mg/kg as citrate), vs solvent group
  (iii) Duration of action of levodopa without dyskinesia symptom (ON time without dyskinesia): increase in ON time without dyskinesia
PD-LID rat model [2]; oral 30 mg/kg as citrate, vs solvent group
  total ON score (Locomotive behavior) in 3 hours: increase in the total ON score
PD-LID rat model [2]; oral 67 mg/kg as free form (100 mg/kg as citrate), prolongation vs solvent group
  (iii) Duration of action of levodopa without dyskinesia symptom (ON time without dyskinesia): significant prolongation in the ON-time without dyskinesia; also recorded: increase in ON time without dyskinesia
PD-LID rat model [2]; oral 100 mg/kg as citrate, vs solvent group
  total ON score (Locomotive behavior) in 3 hours: increase in the total ON score
PD-LID rat model [3]
  dyskinesia-like symptoms (total AIMs score in 3 hours): Significant improvement in dyskinesia-like symptoms
